# Data taken from patent EP4755888A1 (ILAb Co., Ltd., priority 2023, dated 2025).
# Biological target: PD-1/PD-L1 (Homo sapiens, UniProt Q9NZQ7)
# Experiment: TR-FRET PD-1/PD-L1 binding inhibition at the molecular level (free proteins)
# Conditions: Tag1-PD-L1 and Tag2-PD-1 proteins, twelve concentrations from 200 nM, 2 hours at room temperature, read-out: FRET assay (IC50)
# Summary of the method: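 HTRF read-out at 665/620 nm after 2 h at room temperature. Detection used anti-Tag1 Eu cryptate plus anti-Tag2 XL665 antibodies. Tagged PD-L1 and PD-1 proteins were pre-mixed with compound across twelve […] 1:2 dilutions starting at 200 nM.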
# Chain of PD-1/PD-L1 (Q9NZQ7 19-238 limits assumed): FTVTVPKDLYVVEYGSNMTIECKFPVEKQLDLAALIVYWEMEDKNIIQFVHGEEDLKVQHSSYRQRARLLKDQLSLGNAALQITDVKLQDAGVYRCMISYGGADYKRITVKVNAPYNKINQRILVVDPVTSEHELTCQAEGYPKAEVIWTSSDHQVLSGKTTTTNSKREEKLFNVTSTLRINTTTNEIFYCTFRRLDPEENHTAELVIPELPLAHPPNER
row,IC50,SMILES
1,< 10 nM,"O[C@@H]1CCN(Cc2cnc3c(Nc4cccc(-c5cccc(-c6cc7n(n6)CCCC7N6CC[C@@H](O)C6)c5Cl)c4Cl)nccc3c2)C1 (stereo partly drawn) [Compound 183, (3R)-1-(2-(2,2'-dichloro-3'-((3-(((R)-3-hydroxypyrrolidin-1-yl)methyl)-1,7-naphthyridin-8-yl)amino)-[1,1'-biphenyl]-3-yl)-4,5,6,7-tetrahydropyrazolo[1,5-a]pyridin-4-yl)pyrrolidin-3-ol]"
2,< 10 nM,"O=C(O)[C@@H]1CCN(C2CCCn3nc(-c4cccc(-c5cccc(Nc6nccc7cc(CN8CC[C@@H](O)C8)cnc67)c5Cl)c4Cl)cc32)C1 (stereo partly drawn) [Compound 184, (3R)-1-(2-(2,2'-dichloro-3'-((3-(((R)-3-hydroxypyrrolidin-1-yl)methyl)-1,7-naphthyridin-8-yl)amino)-[1,1'-biphenyl]-3-yl)-4,5,6,7-tetrahydropyrazolo[1,5-a]pyridin-4-yl)pyrrolidine-3-carboxylic acid]"
3,< 10 nM,"O=C(O)CNC1CCCn2nc(-c3cccc(-c4cccc(Nc5nccc6cc(CN7CC[C@@H](O)C7)cnc56)c4Cl)c3Cl)cc21 (stereo partly drawn) [Compound 185, 2-((2-(2,2'-dichloro-3'-((3-(((R)-3-hydroxypyrrolidin-1-yl)methyl)-1,7-naphthyridin-8-yl)amino)-[1,1'-biphenyl]-3-yl)-4,5,6,7-tetrahydropyrazolo[1,5-a]pyridin-4-yl)amino)acetic acid]"
4,< 10 nM,"COc1cc(-c2cccc(-c3cccc(NC(=O)c4cc5n(n4)CCCC5NCC(=O)O)c3Cl)c2Cl)cc(F)c1CNCCO (stereo not drawn) [Compound 186, 2-((2-((2,2'-dichloro-3""-fluoro-4""-(((2-hydroxyethyl)amino)methyl)-5""-methoxy-[1,1':3',1""-terphenyl]-3-yl)carbamoyl)-4,5,6,7-tetrahydropyrazolo[1,5-a]pyridin-4-yl)amino)acetic acid]"
5,< 10 nM,"COc1cc(-c2cccc(-c3cccc(NC(=O)c4cc5n(n4)CCCC5NCC(=O)O)c3Cl)c2Cl)cc(F)c1CN1CC[C@@H](O)C1 (stereo partly drawn) [Compound 187, 2-((2-((2,2'-dichloro-3""-fluoro-4""-(((R)-3-hydroxypyrrolidin-1-yl)methyl)-5""-methoxy-[1,1':3',1""-terphenyl]-3-yl)carbamoyl)-4,5,6,7-tetrahydropyrazolo[1,5-a]pyridin-4-yl)amino)acetic acid]"
6,< 10 nM,"COc1cc(-c2cccc(-c3cccc(NC(=O)c4cc5n(n4)CCCC5NCC(=O)O)c3Cl)c2Cl)cc(F)c1CNC[C@@H]1CCC(=O)N1 (stereo partly drawn) [Compound 188, 2-((2-((2,2'-dichloro-3""-fluoro-5""-methoxy-4""-(((((S)-5-oxopyrrolidin-2-yl)methyl)amino)methyl)-[1,1':3',1""-terphenyl]-3-yl)carbamoyl)-4,5,6,7-tetrahydropyrazolo[1,5-a]pyridin-4-yl)amino)acetic acid]"
7,< 10 nM,"COc1cc(-c2cccc(-c3cccc(NC(=O)c4cc5n(n4)CCCC5NCC(=O)O)c3Cl)c2Cl)cc(F)c1CNCCNC(C)=O (stereo not drawn) [Compound 189, 2-((2-((4""-(((2-acetamidoethyl)amino)methyl)-2,2'-dichloro-3""-fluoro-5""-methoxy-[1,1':3',1""-terphenyl]-3-yl)carbamoyl)-4,5,6,7-tetrahydropyrazolo[1,5-a]pyridin-4-yl)amino)acetic acid]"
8,< 10 nM,"COc1cc(C(=O)Nc2cccc(-c3cccc(NC(=O)c4cc5n(n4)CCCC5NCC(=O)O)c3Cl)c2Cl)cc(F)c1CNCCO (stereo not drawn) [Compound 190, 2-((2-((2,2'-dichloro-3'-(3-fluoro-4-(((2-hydroxyethyl)amino)methyl)-5-methoxybenzamido)-[1,1'-biphenyl]-3-yl)carbamoyl)-4,5,6,7-tetrahydropyrazolo[1,5-a]pyridin-4-yl)amino)acetic acid]"
9,< 10 nM,"COc1cc(C(=O)Nc2cccc(-c3cccc(NC(=O)c4cc5n(n4)CCCC5NCC(=O)O)c3Cl)c2Cl)cc(F)c1CNCC(=O)O (stereo not drawn) [Compound 191, 2-((4-((3'-(4-((carboxymethyl)amino)-4,5,6,7-tetrahydropyrazolo[1,5-a]pyridine-2-carboxamido)-2,2'-dichloro-[1,1'-biphenyl]-3-yl)carbamoyl)-2-fluoro-6-methoxybenzyl)amino)acetic acid]"
10,< 10 nM,"COc1cc(C(=O)Nc2cccc(-c3cccc(NC(=O)c4cc5n(n4)CCCC5NCC(=O)O)c3Cl)c2Cl)cc(F)c1CN1CC[C@@H](O)C1 (stereo partly drawn) [Compound 192, 2-((2-((2,2'-dichloro-3'-(3-fluoro-4-(((R)-3-hydroxypyrrolidin-1-yl)methyl)-5-methoxybenzamido)-[1,1'-biphenyl]-3-yl)carbamoyl)-4,5,6,7-tetrahydropyrazolo[1,5-a]pyridin-4-yl)amino)acetic acid]"
11,< 10 nM,"COc1cc(C(=O)Nc2cccc(-c3cccc(NC(=O)c4cc5n(n4)CCCC5NCC(=O)O)c3Cl)c2Cl)cc(F)c1CN1CC[C@@H](C(=O)O)C1 (stereo partly drawn) [Compound 193, (3R)-1-(4-((3'-(4-((carboxymethyl)amino)-4,5,6,7-tetrahydropyrazolo[1,5-a]pyridine-2-carboxamido)-2,2'-dichloro-[1,1'-biphenyl]-3-yl)carbamoyl)-2-fluoro-6-methoxybenzyl)pyrrolidine-3-carboxylic acid]"
12,< 10 nM,"COc1cc(C(=O)Nc2cccc(-c3cccc(NC(=O)c4cc5n(n4)CCCC5N4CC[C@@H](C(=O)O)C4)c3Cl)c2Cl)cc(F)c1CNCCO (stereo partly drawn) [Compound 194, (3R)-1-(2-((2,2'-dichloro-3'-(3-fluoro-4-(((2-hydroxyethyl)amino)methyl)-5-methoxybenzamido)-[1,1'-biphenyl]-3-yl)carbamoyl)-4,5,6,7-tetrahydropyrazolo[1,5-a]pyridin-4-yl)pyrrolidine-3-carboxylic acid]"
13,< 10 nM,"COc1cc(C(=O)Nc2cccc(-c3cccc(NC(=O)c4cc5n(n4)CCCC5N4CC[C@@H](C(=O)O)C4)c3Cl)c2Cl)cc(F)c1CNCC(=O)O (stereo partly drawn) [Compound 195, (3R)-1-(2-((3'-(4-(((carboxymethyl)amino)methyl)-3-fluoro-5-methoxybenzamido)-2,2'-dichloro-[1,1'-biphenyl]-3-yl)carbamoyl)-4,5,6,7-tetrahydropyrazolo[1,5-a]pyridin-4-yl)pyrrolidine-3-carboxylic acid]"
14,< 10 nM,"COc1cc(C(=O)Nc2cccc(-c3cccc(NC(=O)c4cc5n(n4)CCCC5N4CC[C@@H](C(=O)O)C4)c3Cl)c2Cl)cc(F)c1CN1CC[C@@H](O)C1 (stereo partly drawn) [Compound 196, (3R)-1-(2-((2,2'-dichloro-3'-(3-fluoro-4-(((R)-3-hydroxypyrrolidin-1-yl)methyl)-5-methoxybenzamido)-[1,1'-biphenyl]-3-yl)carbamoyl)-4,5,6,7-tetrahydropyrazolo[1,5-a]pyridin-4-yl)pyrrolidine-3-carboxylic acid]"
15,10 to 100 nM,"COc1cc(C(=O)Nc2cccc(-c3cccc(NC(=O)c4cc5n(n4)CCCC5N4CC[C@@H](C(=O)O)C4)c3Cl)c2Cl)cc(F)c1CN1CC[C@@H](C(=O)O)C1 (stereo partly drawn) [Compound 197, (3R)-1-(4-((3'-(4-((R)-3-carboxypyrrolidin-1-yl)-4,5,6,7-tetrahydropyrazolo[1,5-a]pyridine-2-carboxamido)-2,2'-dichloro-[1,1'-biphenyl]-3-yl)carbamoyl)-2-fluoro-6-methoxybenzyl)pyrrolidine-3-carboxylic acid]"
16,< 10 nM,"O=C(O)CNC1CCCn2nc(C(=O)Nc3cccc(-c4cccc(NC(=O)c5ccc(CNCCO)c(F)n5)c4Cl)c3Cl)cc21 (stereo not drawn) [Compound 198, 2-((2-((2,2'-dichloro-3'-(6-fluoro-5-(((2-hydroxyethyl)amino)methyl)picolinamido)-[1,1'-biphenyl]-3-yl)carbamoyl)-4,5,6,7-tetrahydropyrazolo[1,5-a]pyridin-4-yl)amino)acetic acid]"
17,< 10 nM,"O=C(Nc1cccc(-c2cccc(NC(=O)c3cc4n(n3)CCCC4N3CC[C@@H](C(=O)O)C3)c2Cl)c1Cl)c1ccc(CNCCO)c(F)n1 (stereo partly drawn) [Compound 199, (3R)-1-(2-((2,2'-dichloro-3'-(6-fluoro-5-(((2-hydroxyethyl)amino)methyl)picolinamido)-[1,1'-biphenyl]-3-yl)carbamoyl)-4,5,6,7-tetrahydropyrazolo[1,5-a]pyridin-4-yl)pyrrolidine-3-carboxylic acid]"
18,< 10 nM,"O=C(O)CNC1CCCn2nc(C(=O)Nc3cccc(-c4cccc(NC(=O)c5ncc(CNCCO)cc5F)c4Cl)c3Cl)cc21 (stereo not drawn) [Compound 200, 2-((2-((2,2'-dichloro-3'-(3-fluoro-5-(((2-hydroxyethyl)amino)methyl)picolinamido)-[1,1'-biphenyl]-3-yl)carbamoyl)-4,5,6,7-tetrahydropyrazolo[1,5-a]pyridin-4-yl)amino)acetic acid]"
19,< 10 nM,"O=C(Nc1cccc(-c2cccc(NC(=O)c3ncc(CNCCO)cc3F)c2Cl)c1Cl)c1cc2n(n1)CCCC2N1CC[C@@H](C(=O)O)C1 (stereo partly drawn) [Compound 201, (3R)-1-(2-((2,2'-dichloro-3'-(3-fluoro-5-(((2-hydroxyethyl)amino)methyl)picolinamido)-[1,1'-biphenyl]-3-yl)carbamoyl)-4,5,6,7-tetrahydropyrazolo[1,5-a]pyridin-4-yl)pyrrolidine-3-carboxylic acid]"
20,< 10 nM,"O=C(O)CNC1CCCn2nc(C(=O)Nc3cccc(-c4cccc(NC(=O)c5ccc(CN6CC[C@@H](O)C6)c(F)n5)c4Cl)c3Cl)cc21 (stereo partly drawn) [Compound 202, 2-((2-((2,2'-dichloro-3'-(6-fluoro-5-(((R)-3-hydroxypyrrolidin-1-yl)methyl)picolinamido)-[1,1'-biphenyl]-3-yl)carbamoyl)-4,5,6,7-tetrahydropyrazolo[1,5-a]pyridin-4-yl)amino)acetic acid]"
21,< 10 nM,"O=C(Nc1cccc(-c2cccc(NC(=O)c3cc4n(n3)CCCC4N3CC[C@@H](C(=O)O)C3)c2Cl)c1Cl)c1ccc(CN2CC[C@@H](O)C2)c(F)n1 (stereo partly drawn) [Compound 203, (3R)-1-(2-((2,2'-dichloro-3'-(6-fluoro-5-(((R)-3-hydroxypyrrolidin-1-yl)methyl)picolinamido)-[1,1'-biphenyl]-3-yl)carbamoyl)-4,5,6,7-tetrahydropyrazolo[1,5-a]pyridin-4-yl)pyrrolidine-3-carboxylic acid]"
